Data as given in patent publication US8148391B2 (Cephalon, Inc., priority 2006, dated 2012).

Experiments:
[1] = target: T1, baculovirus-expressed ALK (Homo sapiens, UniProt Q9UM73); assay: ALK Kinase Assay (ELISA-type, time-resolved fluorescence); format: biochemical; details: 1 μM ATP (Km level), 30 ng/ml ALK, 37° C., 15 minutes; read-out: ALK Activity (ALK kinase inhibition, IC50 class)
T1 construct: host or cells: baculovirus expression system
Procedure, shortened: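 Substrate coating: phospholipase C-γ, 10 μg/mL in TBS. Kinase step: 30 ng/ml ALK, 15 min, 37° C. Detection and analysis: Eu-N1 PT66 antibody, with IC50 fitted as a sigmoidal variable-slope dose-response curve.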

[2] = target: T2, c-Met (cytoplasmic domain) (Homo sapiens, UniProt P08581); assay: c-Met Kinase Assay (same methods as for ALK, with modifications); format: biochemical; details: 1 μM ATP (Km level), 10 ng/mL c-Met; read-out: cMet Activity (c-Met kinase inhibition, IC50 class)
T2 construct: 10 ng/mL c-Met (cytoplasmic domain, Invitrogen Corporation #PV3143); purchased Invitrogen Corporation PV3143
T2 sequence (P08581 956-1390 limits assumed): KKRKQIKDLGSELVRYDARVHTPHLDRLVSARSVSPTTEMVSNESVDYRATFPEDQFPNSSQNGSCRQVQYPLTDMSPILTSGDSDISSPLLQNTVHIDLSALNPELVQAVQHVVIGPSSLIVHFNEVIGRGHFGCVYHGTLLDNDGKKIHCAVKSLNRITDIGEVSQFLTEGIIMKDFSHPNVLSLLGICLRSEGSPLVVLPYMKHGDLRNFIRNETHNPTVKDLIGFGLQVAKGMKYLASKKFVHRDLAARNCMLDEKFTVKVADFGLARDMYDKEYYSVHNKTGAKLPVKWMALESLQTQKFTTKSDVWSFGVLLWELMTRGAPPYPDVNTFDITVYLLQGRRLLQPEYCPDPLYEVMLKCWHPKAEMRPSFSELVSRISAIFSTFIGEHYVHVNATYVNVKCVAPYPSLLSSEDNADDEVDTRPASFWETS
Procedure, shortened: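 Wells were coated with 10 μg/mL phospholipase C-γ substrate in TBS, and reactions were started with 10 ng/mL c-Met cytoplasmic domain and run at 37° C for 15 minutes. Phosphorylated product was detected with Eu-N1-labeled PT66 antibody. IC50 values came from sigmoidal variable-slope fits of percent inhibition versus log compound concentration.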

T1 sequence (Q9UM73 19-1620): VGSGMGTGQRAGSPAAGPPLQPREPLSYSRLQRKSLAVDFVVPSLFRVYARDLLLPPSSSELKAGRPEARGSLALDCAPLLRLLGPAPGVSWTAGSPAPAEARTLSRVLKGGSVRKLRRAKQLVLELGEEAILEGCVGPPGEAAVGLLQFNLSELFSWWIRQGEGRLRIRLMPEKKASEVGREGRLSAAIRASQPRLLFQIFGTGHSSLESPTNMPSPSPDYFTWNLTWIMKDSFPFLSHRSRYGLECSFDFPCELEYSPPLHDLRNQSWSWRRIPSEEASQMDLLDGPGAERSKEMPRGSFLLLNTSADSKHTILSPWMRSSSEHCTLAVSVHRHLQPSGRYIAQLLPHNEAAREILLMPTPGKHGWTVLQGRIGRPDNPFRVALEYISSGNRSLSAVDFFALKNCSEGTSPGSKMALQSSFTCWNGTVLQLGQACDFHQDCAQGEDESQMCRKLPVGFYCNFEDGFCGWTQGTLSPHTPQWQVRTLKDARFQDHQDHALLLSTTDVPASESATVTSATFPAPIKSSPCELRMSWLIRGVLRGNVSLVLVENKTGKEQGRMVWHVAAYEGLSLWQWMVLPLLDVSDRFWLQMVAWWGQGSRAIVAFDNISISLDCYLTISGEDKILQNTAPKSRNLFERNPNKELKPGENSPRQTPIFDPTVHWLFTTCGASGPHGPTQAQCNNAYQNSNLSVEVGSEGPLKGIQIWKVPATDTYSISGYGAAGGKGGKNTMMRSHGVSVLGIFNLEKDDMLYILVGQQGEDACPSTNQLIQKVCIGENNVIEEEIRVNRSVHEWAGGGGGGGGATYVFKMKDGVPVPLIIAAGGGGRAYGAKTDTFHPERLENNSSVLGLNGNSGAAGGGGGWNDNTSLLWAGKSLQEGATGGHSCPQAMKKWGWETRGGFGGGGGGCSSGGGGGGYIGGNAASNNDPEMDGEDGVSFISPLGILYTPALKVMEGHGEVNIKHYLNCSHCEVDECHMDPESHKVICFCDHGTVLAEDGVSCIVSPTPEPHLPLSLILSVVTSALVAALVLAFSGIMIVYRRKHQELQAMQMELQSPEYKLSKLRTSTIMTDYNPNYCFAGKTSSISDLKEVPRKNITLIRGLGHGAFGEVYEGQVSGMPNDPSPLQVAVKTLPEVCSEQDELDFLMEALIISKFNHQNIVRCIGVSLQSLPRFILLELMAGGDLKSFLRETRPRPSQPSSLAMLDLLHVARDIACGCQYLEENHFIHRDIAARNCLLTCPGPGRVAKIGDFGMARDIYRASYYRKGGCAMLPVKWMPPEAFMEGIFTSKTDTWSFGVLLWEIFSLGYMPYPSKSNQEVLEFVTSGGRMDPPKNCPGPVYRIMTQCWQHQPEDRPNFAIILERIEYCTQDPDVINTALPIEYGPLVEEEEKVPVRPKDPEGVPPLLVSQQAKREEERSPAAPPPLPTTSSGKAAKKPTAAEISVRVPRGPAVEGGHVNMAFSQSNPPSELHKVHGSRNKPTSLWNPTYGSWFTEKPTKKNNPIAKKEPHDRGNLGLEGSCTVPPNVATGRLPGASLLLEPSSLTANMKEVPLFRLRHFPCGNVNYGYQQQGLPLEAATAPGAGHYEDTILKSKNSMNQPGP

SMILES: C#CCNC(=O)c1cccc(F)c1Nc1nc(Nc2ccc3c(c2)OCCCN3CC)ncc1Cl [Example 1407, 2-[5-Chloro-2-(9-ethyl-6,7,8,9-tetrahydro-5-oxa-9-aza-benzocyclohepten-3-ylamino)-pyrimidin-4-ylamino]-3-fluoro-N-prop-2-ynyl-benzamide]
- IC50 [1]: 100 to 1000 nM
- IC50 [2]: < 100 nM

SMILES: COCCN1CCc2ccc(Nc3ncc(Cl)c(Nc4ccccc4C(=O)OC)n3)cc2CC1 [Example 1408, 2-{5-Chloro-2-[3-(2-methoxy-ethyl)-2,3,4,5-tetrahydro-1H-benzo[d]azepin-7-ylamino]-pyrimidin-4-ylamino}-benzoic acid methyl ester]
- IC50 [1]: < 100 nM
- IC50 [2]: 100 to 1000 nM

SMILES: CCN1CCCOc2cc(Nc3ncc(Cl)c(Nc4ccsc4C(=O)NC)n3)ccc21 [Example 1409, 3-[5-Chloro-2-(9-ethyl-6,7,8,9-tetrahydro-5-oxa-9-aza-benzocyclohepten-3-ylamino)-pyrimidin-4-ylamino]-thiophene-2-carboxylic acid methyl amide]
- IC50 [1]: 100 to 1000 nM
- IC50 [2]: 100 to 1000 nM

SMILES: CCOC(=O)N1CCCOc2ccc(Nc3ncc(Cl)c(Nc4ccsc4C(=O)NC)n3)cc21 [Example 1411, 2-[5-Chloro-4-(2-methylcarbamoyl-thiophen-3-ylamino)-pyrimidin-2-ylamino]-7,8-dihydro-6H-5-oxa-9-aza-benzocycloheptene-9-carboxylic acid ethyl ester]
- IC50 [1]: 100 to 1000 nM
- IC50 [2]: 1000 to 10000 nM

SMILES: CNC(=O)c1cc(N(C)C)ccc1Nc1nc(Nc2ccc3c(c2)NC(=O)CCC3)ncc1Cl [Example 1412, 2-[5-Chloro-2-(2-oxo-2,3,4,5-tetrahydro-1H-benzo[b]azepin-8-ylamino)-pyrimidin-4-ylamino]-5-dimethylamino-N-methyl-benzamide]
- IC50 [1]: 100 to 1000 nM
- IC50 [2]: 100 to 1000 nM

SMILES: CNC(=O)c1cc(N(C)C)ccc1Nc1nc(Nc2ccc3c(c2)CCN(CCOC)CC3)ncc1Cl [Example 1413, 2-{5-Chloro-2-[3-(2-methoxy-ethyl)-2,3,4,5-tetrahydro-1H-benzo[d]azepin-7-ylamino]-pyrimidin-4-ylamino}-5-dimethylamino-N-methyl-benzamide]
- IC50 [1]: < 100 nM
- IC50 [2]: 100 to 1000 nM

SMILES: CNC(=O)c1cc(Br)cc(F)c1Nc1nc(Nc2ccc3c(c2)NC(=O)CCC3)ncc1Cl [Example 1414, 5-Bromo-2-[5-chloro-2-(2-oxo-2,3,4,5-tetrahydro-1H-benzo[b]azepin-8-ylamino)-pyrimidin-4-ylamino]-3-fluoro-N-methyl-benzamide]
- IC50 [1]: 100 to 1000 nM
- IC50 [2]: < 100 nM

SMILES: CNC(=O)c1cc(Br)cc(F)c1Nc1nc(Nc2ccc3c(c2)CCN(CCOC)CC3)ncc1Cl [Example 1415, 5-Bromo-2-{5-chloro-2-[3-(2-methoxy-ethyl)-2,3,4,5-tetrahydro-1H-benzo[d]azepin-7-ylamino]-pyrimidin-4-ylamino}-3-fluoro-N-methyl-benzamide]
- IC50 [1]: < 100 nM
- IC50 [2]: < 100 nM

SMILES: COCCN1CCc2ccc(Nc3ncc(Cl)c(Nc4ccccc4C(=O)NCCN4CCCC4)n3)cc2CC1 [Example 1416, 2-{5-Chloro-2-[3-(2-methoxy-ethyl)-2,3,4,5-tetrahydro-1H-benzo[d]azepin-7-ylamino]-pyrimidin-4-ylamino}-N-(2-pyrrolidin-1-yl-ethyl)-benzamide]
- IC50 [1]: 100 to 1000 nM
- IC50 [2]: 100 to 1000 nM

SMILES: CCOC(=O)N1CCCOc2cc(Nc3ncc(Cl)c(Nc4ccsc4C(=O)NC)n3)ccc21 [Example 1418, 3-[5-Chloro-4-(2-methylcarbamoyl-thiophen-3-ylamino)-pyrimidin-2-ylamino]-7,8-dihydro-6H-5-oxa-9-aza-benzocycloheptene-9-carboxylic acid ethyl ester]
- IC50 [1]: 100 to 1000 nM
- IC50 [2]: 100 to 1000 nM

SMILES: CCOC(=O)N1CCCOc2cc(Nc3ncc(Cl)c(Nc4ccccc4C(=O)NC)n3)ccc21 [Example 1419, 3-[5-Chloro-4-(2-methylcarbamoyl-phenylamino)-pyrimidin-2-ylamino]-7,8-dihydro-6H-5-oxa-9-aza-benzocycloheptene-9-carboxylic acid ethyl ester]
- IC50 [1]: < 100 nM
- IC50 [2]: < 100 nM

SMILES: CNC(=O)c1cc(-c2ccc(C#N)cc2)cc(F)c1Nc1nc(Nc2ccc3c(c2)NC(=O)CCC3)ncc1Cl [Example 1420, 4-[5-Chloro-2-(2-oxo-2,3,4,5-tetrahydro-1H-benzo[b]azepin-8-ylamino)-pyrimidin-4-ylamino]-4′-cyano-5-fluoro-biphenyl-3-carboxylic acid methyl amide]
- IC50 [1]: < 100 nM
- IC50 [2]: 100 to 1000 nM

SMILES: COCCN1CCc2ccc(Nc3ncc(Cl)c(Nc4ccccc4C(=O)NCC4CC4)n3)cc2CC1 [Example 1421, 2-{5-Chloro-2-[3-(2-methoxy-ethyl)-2,3,4,5-tetrahydro-1H-benzo[d]azepin-7-ylamino]-pyrimidin-4-ylamino}-N-cyclopropylmethyl-benzamide]
- IC50 [1]: < 100 nM
- IC50 [2]: 1000 to 10000 nM

SMILES: CNC(=O)c1cc(-c2cnn(C)c2)cc(F)c1Nc1nc(Nc2ccc3c(c2)NC(=O)CCC3)ncc1Cl [Example 1422, 2-[5-Chloro-2-(2-oxo-2,3,4,5-tetrahydro-1H-benzo[b]azepin-8-ylamino)-pyrimidin-4-ylamino]-3-fluoro-N-methyl-5-(1-methyl-1H-pyrazol-4-yl)-benzamide]
- IC50 [1]: 100 to 1000 nM
- IC50 [2]: < 100 nM

SMILES: CNC(=O)c1cc(-c2cnn(C)c2)cc(F)c1Nc1nc(Nc2ccc3c(c2)CCN(CCOC)CC3)ncc1Cl [Example 1423, 2-{5-Chloro-2-[3-(2-methoxy-ethyl)-2,3,4,5-tetrahydro-1H-benzo[d]azepin-7-ylamino]-pyrimidin-4-ylamino}-3-fluoro-N-methyl-5-(1-methyl-1H-pyrazol-4-yl)-benzamide]
- IC50 [1]: < 100 nM
- IC50 [2]: < 100 nM

SMILES: CNC(=O)c1cc(-c2cnn(C)c2)cc(F)c1Nc1nc(Nc2ccc3c(c2)N(C(C)=O)CCCO3)ncc1Cl [Example 1424, 2-[2-(9-Acetyl-6,7,8,9-tetrahydro-5-oxa-9-aza-benzocyclohepten-2-ylamino)-5-chloro-pyrimidin-4-ylamino]-3-fluoro-N-methyl-5-(1-methyl-1H-pyrazol-4-yl)-benzamide]
- IC50 [1]: 100 to 1000 nM
- IC50 [2]: < 100 nM

SMILES: CCN1CCCOc2ccc(Nc3ncc(Cl)c(Nc4c(F)cc(-c5cnn(C)c5)cc4C(=O)NC)n3)cc21 [Example 1425, 2-[5-Chloro-2-(9-ethyl-6,7,8,9-tetrahydro-5-oxa-9-aza-benzocyclohepten-2-ylamino)-pyrimidin-4-ylamino]-3-fluoro-N-methyl-5-(1-methyl-1H-pyrazol-4-yl)-benzamide]
- IC50 [1]: < 100 nM
- IC50 [2]: < 100 nM

SMILES: C#CCNC(=O)c1cccc(F)c1Nc1nc(Nc2ccc3c(c2)OCCCN3C(=O)OCCCN(C)C)ncc1Cl [Example 1427, 3-[5-Chloro-4-(2-fluoro-6-prop-2-ynylcarbamoyl-phenylamino)-pyrimidin-2-ylamino]-7,8-dihydro-6H-5-oxa-9-aza-benzocycloheptene-9-carboxylic acid 3-dimethylamino-propyl ester]
- IC50 [1]: 100 to 1000 nM
- IC50 [2]: 100 to 1000 nM

SMILES: CNC(=O)c1sccc1Nc1nc(Nc2ccc3c(c2)OCCCN3C(=O)OCCCN(C)C)ncc1Cl [Example 1428, 3-[5-Chloro-4-(2-methylcarbamoyl-thiophen-3-ylamino)-pyrimidin-2-ylamino]-7,8-dihydro-6H-5-oxa-9-aza-benzocycloheptene-9-carboxylic acid 3-dimethylamino-propyl ester]
- IC50 [1]: 100 to 1000 nM
- IC50 [2]: 100 to 1000 nM

SMILES: C#CCNC(=O)c1sccc1Nc1nc(Nc2ccc3c(c2)OCCCN3C(=O)OCCCN(C)C)ncc1Cl [Example 1429, 3-[5-Chloro-4-(2-prop-2-ynylcarbamoyl-thiophen-3-ylamino)-pyrimidin-2-ylamino]-7,8-dihydro-6H-5-oxa-9-aza-benzocycloheptene-9-carboxylic acid 3-dimethylamino-propyl ester]
- IC50 [1]: 100 to 1000 nM
- IC50 [2]: 100 to 1000 nM

SMILES: C#CCNC(=O)c1cccc(F)c1Nc1nc(Nc2ccc3c(c2)OCCCN3C(=O)OC)ncc1Cl [Example 1430, 3-[5-Chloro-4-(2-fluoro-6-prop-2-ynylcarbamoyl-phenylamino)-pyrimidin-2-ylamino]-7,8-dihydro-6H-5-oxa-9-aza-benzocycloheptene-9-carboxylic acid methyl ester]
- IC50 [1]: 100 to 1000 nM
- IC50 [2]: < 100 nM

SMILES: C#CCNC(=O)c1cccc(F)c1Nc1nc(Nc2ccc3c(c2)OCCCN3C(=O)OC(C)C)ncc1Cl [Example 1433, 3-[5-Chloro-4-(2-fluoro-6-prop-2-ynylcarbamoyl-phenylamino)-pyrimidin-2-ylamino]-7,8-dihydro-6H-5-oxa-9-aza-benzocycloheptene-9-carboxylic acid isopropyl ester]
- IC50 [1]: 100 to 1000 nM
- IC50 [2]: 100 to 1000 nM

SMILES: CNC(=O)c1cc(-c2cnn(C)c2)cc(F)c1Nc1nc(Nc2ccc3c(c2)OCCCN3C(=O)OC)ncc1Cl [Example 1434, 3-{5-Chloro-4-[2-fluoro-6-methylcarbamoyl-4-(1-methyl-1H-pyrazol-4-yl)-phenylamino]-pyrimidin-2-ylamino}-7,8-dihydro-6H-5-oxa-9-aza-benzocycloheptene-9-carboxylic acid methyl ester]
- IC50 [1]: < 100 nM
- IC50 [2]: < 100 nM

SMILES: CNC(=O)c1sccc1Nc1nc(Nc2ccc3c(c2)OCCCN3C(=O)OC(C)C)ncc1Cl [Example 1435, 3-[5-Chloro-4-(2-methylcarbamoyl-thiophen-3-ylamino)-pyrimidin-2-ylamino]-7,8-dihydro-6H-5-oxa-9-aza-benzocycloheptene-9-carboxylic acid isopropyl ester]
- IC50 [1]: 100 to 1000 nM
- IC50 [2]: 100 to 1000 nM
